Laboratory results: PMC5513037, “Examining the influence of specificity ligands and ATP-competitive ligands on the overall effectiveness of bivalent kinase inhibitors” (Proteome Science, 2017)
pIC50: −log10 of the molar value.

Key:
Assay in all cases: KAM-matrix competition in K562 lysate;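 on 0.001 uM KAM: median log10 fold change of treatment over DMSO control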;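 on 0.01 uM KAM: median log10 fold change of treatment over DMSO control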;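 on 0.1 uM KAM: median log10 fold change of treatment over DMSO control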;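 on 1 uM KAM: median log10 fold change of treatment over DMSO control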;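 on 10 uM KAM: median log10 fold change of treatment over DMSO control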
Format in all cases: binding
AURKC = biological target: T1, AURKC (Homo sapiens, UniProt Q9UQB9)
T1 construct: endogenous in cells; host or cells: K562
T1 sequence (Q9UQB9 1-309): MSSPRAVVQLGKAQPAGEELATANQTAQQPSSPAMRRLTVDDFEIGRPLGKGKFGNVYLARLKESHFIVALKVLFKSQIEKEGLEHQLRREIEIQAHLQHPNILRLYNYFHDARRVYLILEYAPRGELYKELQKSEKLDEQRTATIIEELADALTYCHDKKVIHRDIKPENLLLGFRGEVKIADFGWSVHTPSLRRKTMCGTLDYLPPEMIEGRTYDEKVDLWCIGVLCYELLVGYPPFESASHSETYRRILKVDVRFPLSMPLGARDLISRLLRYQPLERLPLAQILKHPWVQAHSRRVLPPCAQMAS
Procedure: (§1) Supplement 12953_2017_125_MOESM1_ESM.zip/MS_Supp Info.xlsx, sheet "KAM" | column: 10 uM KAM; 1 uM KAM; 0.1 uM KAM; 0.01 uM KAM; 0.001 uM KAM; RB50

YES1 = biological target: T2, YES1 (Homo sapiens, UniProt P07947)
T2 construct: endogenous in cells; host or cells: K562
Procedure: as §1

MTOR = biological target: T3, MTOR (Homo sapiens, UniProt P42345);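 on 0.001 uM KAM: median log10 fold change of treatment over DMSO control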;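 on 0.01 uM KAM: median log10 fold change of treatment over DMSO control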;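 on 0.1 uM KAM: median log10 fold change of treatment over DMSO control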;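 on 1 uM KAM: median log10 fold change of treatment over DMSO control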;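 on 10 uM KAM: median log10 fold change of treatment over DMSO control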
T3 construct: endogenous in cells; host or cells: K562
Procedure: as §1

PKD1 = biological target: T4, PKD1 (Homo sapiens, UniProt P98161);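 on 0.001 uM KAM: median log10 fold change of treatment over DMSO control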;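 on 0.01 uM KAM: median log10 fold change of treatment over DMSO control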;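 on 0.1 uM KAM: median log10 fold change of treatment over DMSO control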;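 on 1 uM KAM: median log10 fold change of treatment over DMSO control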;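 on 10 uM KAM: median log10 fold change of treatment over DMSO control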
T4 construct: endogenous in cells; host or cells: K562
Procedure: as §1

PRKAA1 = biological target: T5, PRKAA1 (Homo sapiens, UniProt Q13131)
T5 construct: endogenous in cells; host or cells: K562
Procedure: as §1

TEC = biological target: T6, TEC (Homo sapiens, UniProt P42680)
T6 construct: endogenous in cells; host or cells: K562 cell lysate
T6 sequence (P42680 1-631): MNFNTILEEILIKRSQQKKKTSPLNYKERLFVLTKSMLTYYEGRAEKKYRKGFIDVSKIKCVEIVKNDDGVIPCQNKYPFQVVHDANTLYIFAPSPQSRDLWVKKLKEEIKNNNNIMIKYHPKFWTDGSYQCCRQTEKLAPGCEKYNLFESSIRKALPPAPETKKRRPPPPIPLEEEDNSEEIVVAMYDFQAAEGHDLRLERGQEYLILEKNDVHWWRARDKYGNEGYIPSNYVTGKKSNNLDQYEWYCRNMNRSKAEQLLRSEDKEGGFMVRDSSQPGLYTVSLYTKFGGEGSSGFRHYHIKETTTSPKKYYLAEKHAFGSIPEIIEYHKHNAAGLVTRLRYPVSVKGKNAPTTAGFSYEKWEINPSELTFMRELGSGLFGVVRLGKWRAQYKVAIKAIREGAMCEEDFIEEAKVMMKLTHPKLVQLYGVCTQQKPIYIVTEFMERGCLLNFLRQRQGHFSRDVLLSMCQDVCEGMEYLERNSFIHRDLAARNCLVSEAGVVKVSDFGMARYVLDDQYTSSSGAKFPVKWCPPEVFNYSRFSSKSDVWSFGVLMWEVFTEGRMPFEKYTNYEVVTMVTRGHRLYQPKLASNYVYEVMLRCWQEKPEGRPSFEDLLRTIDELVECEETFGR
Procedure: as §1

TTK = biological target: T7, TTK (Homo sapiens, UniProt P33981);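 on 0.001 uM KAM: median log10 fold change of treatment over DMSO control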;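 on 0.01 uM KAM: median log10 fold change of treatment over DMSO control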;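 on 0.1 uM KAM: median log10 fold change of treatment over DMSO control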;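 on 1 uM KAM: median log10 fold change of treatment over DMSO control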;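 on 10 uM KAM: median log10 fold change of treatment over DMSO control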
T7 construct: endogenous in cells; host or cells: K562
T7 sequence (P33981 1-857): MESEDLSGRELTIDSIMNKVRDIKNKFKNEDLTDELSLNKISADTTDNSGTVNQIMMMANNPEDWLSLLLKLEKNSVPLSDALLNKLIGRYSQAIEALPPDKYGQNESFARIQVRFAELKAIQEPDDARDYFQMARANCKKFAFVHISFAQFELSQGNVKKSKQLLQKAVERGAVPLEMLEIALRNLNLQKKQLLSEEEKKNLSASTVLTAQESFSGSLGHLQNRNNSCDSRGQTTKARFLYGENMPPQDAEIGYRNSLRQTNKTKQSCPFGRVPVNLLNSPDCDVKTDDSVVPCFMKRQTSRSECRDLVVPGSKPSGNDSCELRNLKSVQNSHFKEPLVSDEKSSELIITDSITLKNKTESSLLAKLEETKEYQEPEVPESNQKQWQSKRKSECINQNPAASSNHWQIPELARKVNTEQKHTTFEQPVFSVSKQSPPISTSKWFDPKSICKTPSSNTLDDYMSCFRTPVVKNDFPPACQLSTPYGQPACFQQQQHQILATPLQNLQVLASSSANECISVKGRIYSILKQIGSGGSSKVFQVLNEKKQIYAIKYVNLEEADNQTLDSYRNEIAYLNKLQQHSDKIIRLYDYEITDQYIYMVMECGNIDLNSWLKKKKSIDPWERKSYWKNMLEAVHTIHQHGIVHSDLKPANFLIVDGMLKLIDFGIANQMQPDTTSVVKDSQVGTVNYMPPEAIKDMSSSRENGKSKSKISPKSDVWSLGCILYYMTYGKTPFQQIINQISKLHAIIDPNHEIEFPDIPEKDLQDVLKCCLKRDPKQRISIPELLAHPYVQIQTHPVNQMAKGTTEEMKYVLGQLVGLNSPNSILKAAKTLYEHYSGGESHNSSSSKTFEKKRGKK
Procedure: as §1

PEAK1 = biological target: T8, PEAK1 (Homo sapiens, UniProt Q9H792);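 on 0.001 uM KAM: median log10 fold change of treatment over DMSO control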;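 on 0.01 uM KAM: median log10 fold change of treatment over DMSO control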;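 on 0.1 uM KAM: median log10 fold change of treatment over DMSO control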;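 on 1 uM KAM: median log10 fold change of treatment over DMSO control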;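 on 10 uM KAM: median log10 fold change of treatment over DMSO control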
T8 construct: endogenous in cells; host or cells: K562
Procedure: as §1

[1] = read-out: RB50 (the source's name)
[2] = KAM 0.001-10 uM, read-out: RB50 (the source's name)

T8 sequence (Q9H792 whole entry): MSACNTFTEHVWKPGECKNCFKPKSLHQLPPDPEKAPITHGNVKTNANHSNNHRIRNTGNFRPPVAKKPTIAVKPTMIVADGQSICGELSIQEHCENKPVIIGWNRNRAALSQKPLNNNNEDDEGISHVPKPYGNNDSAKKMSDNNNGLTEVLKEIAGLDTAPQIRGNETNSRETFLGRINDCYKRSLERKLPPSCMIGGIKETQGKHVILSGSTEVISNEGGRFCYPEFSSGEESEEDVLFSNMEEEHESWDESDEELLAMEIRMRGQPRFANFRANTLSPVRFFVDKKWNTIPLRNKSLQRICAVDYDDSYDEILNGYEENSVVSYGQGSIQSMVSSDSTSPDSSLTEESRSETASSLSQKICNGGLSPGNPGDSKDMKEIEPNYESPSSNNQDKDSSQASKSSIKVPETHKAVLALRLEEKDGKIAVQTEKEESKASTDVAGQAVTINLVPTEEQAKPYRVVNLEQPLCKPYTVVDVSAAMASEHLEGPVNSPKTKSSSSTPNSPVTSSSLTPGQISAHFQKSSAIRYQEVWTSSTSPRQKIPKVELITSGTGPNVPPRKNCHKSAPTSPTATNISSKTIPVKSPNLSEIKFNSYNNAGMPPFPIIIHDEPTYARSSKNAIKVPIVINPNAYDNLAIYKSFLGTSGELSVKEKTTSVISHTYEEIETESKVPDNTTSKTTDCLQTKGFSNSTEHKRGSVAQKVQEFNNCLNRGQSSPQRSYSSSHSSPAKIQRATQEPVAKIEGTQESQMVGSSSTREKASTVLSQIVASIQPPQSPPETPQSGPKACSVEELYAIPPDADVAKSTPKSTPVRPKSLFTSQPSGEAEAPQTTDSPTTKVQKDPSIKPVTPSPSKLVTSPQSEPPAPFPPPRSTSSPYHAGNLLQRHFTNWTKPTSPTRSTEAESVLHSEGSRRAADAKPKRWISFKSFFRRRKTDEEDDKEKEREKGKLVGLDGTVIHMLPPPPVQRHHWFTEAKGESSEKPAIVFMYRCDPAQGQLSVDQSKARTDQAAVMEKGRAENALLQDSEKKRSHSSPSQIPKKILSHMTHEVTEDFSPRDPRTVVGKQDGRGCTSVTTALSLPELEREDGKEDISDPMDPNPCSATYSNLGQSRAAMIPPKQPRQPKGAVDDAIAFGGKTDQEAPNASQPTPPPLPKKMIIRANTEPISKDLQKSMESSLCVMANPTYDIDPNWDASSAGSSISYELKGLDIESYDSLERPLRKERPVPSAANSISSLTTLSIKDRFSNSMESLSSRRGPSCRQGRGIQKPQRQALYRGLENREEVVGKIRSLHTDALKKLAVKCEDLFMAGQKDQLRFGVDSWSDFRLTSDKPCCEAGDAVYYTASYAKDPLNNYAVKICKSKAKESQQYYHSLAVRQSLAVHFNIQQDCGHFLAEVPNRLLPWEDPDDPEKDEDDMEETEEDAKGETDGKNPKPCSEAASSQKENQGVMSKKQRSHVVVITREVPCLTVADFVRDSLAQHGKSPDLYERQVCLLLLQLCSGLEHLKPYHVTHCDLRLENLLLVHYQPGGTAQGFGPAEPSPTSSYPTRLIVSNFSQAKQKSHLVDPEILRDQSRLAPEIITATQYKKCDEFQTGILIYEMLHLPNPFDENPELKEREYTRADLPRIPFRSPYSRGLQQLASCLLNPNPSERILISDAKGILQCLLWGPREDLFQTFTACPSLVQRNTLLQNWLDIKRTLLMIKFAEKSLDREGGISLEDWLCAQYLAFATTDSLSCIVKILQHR
T2 sequence (P07947 whole entry): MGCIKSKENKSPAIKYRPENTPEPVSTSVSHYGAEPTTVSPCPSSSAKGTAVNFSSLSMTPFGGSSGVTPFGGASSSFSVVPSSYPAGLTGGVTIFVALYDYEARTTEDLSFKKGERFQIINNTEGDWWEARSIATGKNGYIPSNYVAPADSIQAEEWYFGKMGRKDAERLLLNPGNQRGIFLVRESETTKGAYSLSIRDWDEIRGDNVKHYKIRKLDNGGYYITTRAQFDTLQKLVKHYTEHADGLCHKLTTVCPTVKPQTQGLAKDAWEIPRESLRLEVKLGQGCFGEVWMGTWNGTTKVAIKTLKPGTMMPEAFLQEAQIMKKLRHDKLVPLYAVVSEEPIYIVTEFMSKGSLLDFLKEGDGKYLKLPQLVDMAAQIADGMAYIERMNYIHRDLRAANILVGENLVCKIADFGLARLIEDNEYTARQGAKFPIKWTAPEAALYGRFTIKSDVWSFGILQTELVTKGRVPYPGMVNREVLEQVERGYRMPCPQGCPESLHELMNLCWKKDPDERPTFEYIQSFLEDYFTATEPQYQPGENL
T5 sequence (Q13131 whole entry): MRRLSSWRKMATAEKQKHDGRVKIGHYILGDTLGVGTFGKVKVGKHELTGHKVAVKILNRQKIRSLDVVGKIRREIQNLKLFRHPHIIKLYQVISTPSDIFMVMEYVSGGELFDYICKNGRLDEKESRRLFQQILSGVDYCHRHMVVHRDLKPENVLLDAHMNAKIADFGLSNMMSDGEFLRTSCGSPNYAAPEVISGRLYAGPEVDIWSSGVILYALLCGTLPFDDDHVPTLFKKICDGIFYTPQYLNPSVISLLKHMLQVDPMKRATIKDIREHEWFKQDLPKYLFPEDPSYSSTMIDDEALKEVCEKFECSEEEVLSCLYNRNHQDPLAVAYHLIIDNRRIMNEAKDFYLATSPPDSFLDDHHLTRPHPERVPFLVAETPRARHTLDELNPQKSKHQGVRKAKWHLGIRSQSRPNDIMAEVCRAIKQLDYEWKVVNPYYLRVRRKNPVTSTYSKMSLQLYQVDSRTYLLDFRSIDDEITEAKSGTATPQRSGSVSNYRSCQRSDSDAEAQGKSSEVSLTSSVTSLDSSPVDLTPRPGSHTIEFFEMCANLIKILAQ
T5 sequence (Q9Y478 2-270 partner limits assumed): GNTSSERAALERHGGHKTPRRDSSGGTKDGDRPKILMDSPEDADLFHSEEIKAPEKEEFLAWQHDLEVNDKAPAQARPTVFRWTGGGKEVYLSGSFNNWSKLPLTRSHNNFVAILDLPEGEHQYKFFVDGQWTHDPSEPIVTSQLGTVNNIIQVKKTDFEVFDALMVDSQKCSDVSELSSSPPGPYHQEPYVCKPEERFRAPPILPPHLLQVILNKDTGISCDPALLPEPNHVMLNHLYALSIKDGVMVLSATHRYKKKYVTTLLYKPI
T5 sequence (P54619 whole entry partner): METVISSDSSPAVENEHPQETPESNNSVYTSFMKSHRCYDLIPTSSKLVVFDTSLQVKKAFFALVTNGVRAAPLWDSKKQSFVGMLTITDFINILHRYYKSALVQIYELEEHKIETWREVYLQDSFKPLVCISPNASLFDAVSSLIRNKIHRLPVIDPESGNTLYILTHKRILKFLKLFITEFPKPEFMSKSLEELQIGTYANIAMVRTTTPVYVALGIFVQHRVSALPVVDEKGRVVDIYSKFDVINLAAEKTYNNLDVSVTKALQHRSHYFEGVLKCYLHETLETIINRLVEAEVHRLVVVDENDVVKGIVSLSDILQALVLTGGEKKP

SMILES: N#CCc1ccc(Nc2nc(NCCCN)cc(Nc3cc(C4CC4)[nH]n3)n2)cc1 [KAM]
- median Log10 fold change (AURKC; 0.001 uM KAM): 0.0006126
- median Log10 fold change (AURKC; 0.01 uM KAM): -0.1035
- median Log10 fold change (AURKC; 0.1 uM KAM): -0.4123
- median Log10 fold change (AURKC; 1 uM KAM): -0.4901
- median Log10 fold change (AURKC; 10 uM KAM): -0.3419
- pIC50 (AURKC; [1]): 7.12
- median Log10 fold change (YES1; 0.001 uM KAM): 0.00764
- median Log10 fold change (YES1; 0.01 uM KAM): 0.01465
- median Log10 fold change (YES1; 0.1 uM KAM): -0.1546
- median Log10 fold change (YES1; 1 uM KAM): -0.4462
- median Log10 fold change (YES1; 10 uM KAM): -0.6732
- pIC50 (YES1; [1]): 6.34
- pIC50 (MTOR; [2]): < 5.00
- 0.001 uM KAM (MTOR; relative to 0 uM KAM = 0): -0.05296
- 0.01 uM KAM (MTOR; relative to 0 uM KAM = 0): -0.02855
- 0.1 uM KAM (MTOR; relative to 0 uM KAM = 0): -0.0574
- 1 uM KAM (MTOR; relative to 0 uM KAM = 0): -0.03577
- 10 uM KAM (MTOR; relative to 0 uM KAM = 0): -0.01614
- pIC50 (PKD1; [2]): < 5.00
- 0.001 uM KAM (PKD1; relative to 0 uM KAM = 0): -0.05857
- 0.01 uM KAM (PKD1; relative to 0 uM KAM = 0): 0.006072
- 0.1 uM KAM (PKD1; relative to 0 uM KAM = 0): -0.01241
- 1 uM KAM (PKD1; relative to 0 uM KAM = 0): -0.0439
- 10 uM KAM (PKD1; relative to 0 uM KAM = 0): 0.04844
- median Log10 fold change (PRKAA1; 0.001 uM KAM): 0.006818
- median Log10 fold change (PRKAA1; 0.01 uM KAM): -0.02218
- median Log10 fold change (PRKAA1; 0.1 uM KAM): -0.1974
- median Log10 fold change (PRKAA1; 1 uM KAM): -0.5073
- median Log10 fold change (PRKAA1; 10 uM KAM): -0.6565
- pIC50 (PRKAA1; [1]): 6.55
- median Log10 fold change (TEC; 0.001 uM KAM): -0.06308
- median Log10 fold change (TEC; 0.01 uM KAM): -0.04798
- median Log10 fold change (TEC; 0.1 uM KAM): -0.155
- median Log10 fold change (TEC; 1 uM KAM): -0.2973
- median Log10 fold change (TEC; 10 uM KAM): -0.4239
- pIC50 (TEC; [1]): 5.93
- pIC50 (TTK; [2]): < 5.00
- 0.001 uM KAM (TTK; relative to 0 uM KAM = 0): -0.02414
- 0.01 uM KAM (TTK; relative to 0 uM KAM = 0): 0.009793
- 0.1 uM KAM (TTK; relative to 0 uM KAM = 0): -0.08807
- 1 uM KAM (TTK; relative to 0 uM KAM = 0): -0.1446
- 10 uM KAM (TTK; relative to 0 uM KAM = 0): -0.2103
- pIC50 (PEAK1; [2]): < 5.00
- 0.001 uM KAM (PEAK1; relative to 0 uM KAM = 0): 0.04051
- 0.01 uM KAM (PEAK1; relative to 0 uM KAM = 0): 0.04298
- 0.1 uM KAM (PEAK1; relative to 0 uM KAM = 0): 0.03477
- 1 uM KAM (PEAK1; relative to 0 uM KAM = 0): 0.09337
- 10 uM KAM (PEAK1; relative to 0 uM KAM = 0): 0.04238
